Assay results published in patent EP4772500A1, “NOVEL ISOXAZOLE COMPOUND AS TM4SF5-SPECIFIC INHIBITOR AND USE THEREOF” (Seoul National University R&DB Foundation, priority 2023, dated 2025).

System: Alb-TG^Tm4sf5-Flag mice
Test: DEN-induced liver cancer model in TM4SF5 transgenic animals
Format: in vivo
Experimental: A liver cancer model was induced in 2-week-old male wild type (WT), Alb-TG^Tm4sf5-Flag [genetically modified animals in which Tm4sf5 expression is excessively regulated by the promoter of the Albumin gene, custom-made by Macrogen Co., Ltd.], or Tm4sf5^-/- KO C57BL/6N male animals by a single intraperitoneal injection (IP injection) of DEN (diethylnitrosamine, Sigma-Aldrich) at a concentration of 25 mg/kg, followed by raising for […]. After the DEN treatment, the animals were raised in a pathogen-free room animal facility where temperature and humidity were well controlled under a normal diet for 40 weeks. During the last 6 weeks, an isoxazole drug (dissolved in 40% DMSO) at the indicated concentration was treated by intraperitoneal injection twice a week. Forty-six weeks after the DEN injection, the animals were sacrificed, and liver tissues were analyzed through methods of tissue staining, Western blot, and qRT-PCR.
In cases where a liver cancer model is induced by treating animals with diethylnitrosamine (DEN), liver cancer formation was induced by a single intraperitoneal injection (IP injection) of DEN into 2-week-old animals, followed by raising them for 46 weeks. […] Thereafter, the animals were sacrificed, and liver tissues were obtained and analyzed. […]

## COc1ccc(-c2cc(-c3ccc(NC(C)=O)cc3)no2)cc1 [ST-2-001, N-(4-(5-(4-methoxyphenyl)isoxazole-3-yl)phenyl)acetamide]
DEN 25 mg/kg, drug 5 mg/kg IP twice a week for the final 6 weeks, Alb-TG^Tm4sf5-Flag mice (FIG. 23b)
  cancer formation: minimal or did not occur
qRT-PCR of liver tissues (FIG. 23c)
  mRNA expressions of NK cell activating receptor factors such as SLAMF7, NKG2D, CRTAM, DNAM-1, and CD27: partially recovered and increased
